# In article PMC5388737, “Exploring the Role of CYP3A4 Mediated Drug Metabolism in the Pharmacological Modulation of Nitric Oxide Production” (Frontiers in Pharmacology, 2017):
# Where two headings read alike, the source gives them in different places.
# What was measured:
# [1] = Turbidimetric kinetic aqueous solubility (NIVA-CYPI-KS); format: physicochemical; conditions: potassium phosphate buffer, 37 °C, pH 7.4, aqueous buffer, kinetic from dmso stock, potassium phosphate buffer pH 7.4, 2 h, turbidimetry 620 nm
# Experimental: (§1) Serial dilutions of test compounds in 100% DMSO were carried out on a Biomek FX workstation coupled with a stacker carrousel (Beckman Coulter Inc. Brea, California). […] Compounds for NO production assessment were also prepared from serial dilutions in 100% DMSO (20 μL) which were combined with water (80 μL).
# (§2) Briefly, CYP3A4 inhibition studies were conducted using human recombinant c-DNA expressed CYP3A4 enzymes by quantification of non-fluorescent substrate, 7-benzyloxy-4-(trifluoromethyl) coumarin (BFC) transformation to a fluorescent product (7-HFC), which is mediated by CYP3A4. For aqueous solubility assessment, serial dilutions of test compounds (imidazole derivatives and macrolides) dissolved in DMSO/AcN [35:65] [v/v] (2 μL) were combined with a 180 μL potassium phosphate buffer (pH 7.4) using an Evolution P3 liquid handling station. Then the plates were incubated for 2 h at 37°C to allow slow compound precipitation. Thereafter, absorbance was measured at 620 nm by an EnVision multilabel plate reader. Absorbance signals were used to determine compound solubility limits. Pyrene was used as standard control for precipitation in turbidimetric kinetic solubility determination. […] Finally, reaction product (7-HFC) formation was quantify using florescence measurements. All compounds were tested in triplicate in two different days.
# [2] = In vitro metabolic stability in human liver microsomes; format: in vitro ADME; conditions: HLM 1 mg/mL, 1 μM substrate, NADPH, read-out: Met. stability T1/2
# Experimental: Protein concentration was 1 mg/mL and NADPH was present at 4 mM. Reaction was quenched using an equal volume of AcN and then diluted 1:1 with water prior to analysis by liquid chromatography coupled to high resolution mass spectrometry (LC-HRMS): Chromatography. The incubations were analyzed using an Agilent Series 1290 LC system (Agilent Technologies, Santa Clara, CA, USA). […] Solvent A contained water with 0.1% formic acid and solvent B contained AcN with 0.1% formic acid, and the flow rate was set at 400 μL/min. The gradient elution was performed as follows: 0-0.5 min 0% eluent B; 0.5-7 min 100% eluent B; 7-9 min 100% eluent B; 9-9.2 min 0% eluent B; and 9.2-10.5 min 0% eluent B. High resolution mass spectrometry: AB SCIEX TripleTOF 5600 quadrupole-time-of-flight mass spectrometer (Q-TOF-MS) in positive ESI mode (AB SCIEX, Concord, ON, Canada) was used with a generic method for data acquisition on all compounds and samples. The method consisted of a time of flight mass survey scan (TOF MS), followed by two information-dependent acquisitions (IDA) TOF MS/MS scans. […] An accumulation time of 100 ms was used for each scan. Mass defect triggered IDA was used for the MS/MS scans (collision energy of 35 eV with a spread of ±10 eV). External mass calibration was performed automatically using a calibrant delivery system. Data processing was performed using MultiQuant Software and MetabolitePilot Software (AB SCIEX, Concord, ON, Canada) to process the TOF MS data and generate all quantitative information. An extracted ion current (XIC) window of ±10 mDa was used for all compounds. Peak areas were used to plot the Ln % remaining relative to t = 0.
# [3] = tested on: NO production in LPS stimulated RAW 264.7 macrophages; assay: NO production in LPS stimulated RAW 264.7 murine macrophages (Griess assay); format: cell-based, mouse; conditions: for IC50: Mus musculus, RAW264.7
# Experimental: The mouse macrophage cells, RAW264.7 (ATCC® TIB-71™) were obtained from ATCC and cultured in Dulbecco's Modified Eagle Medium (DMEM), supplemented with 10% FBS and 2 mM l-glutamine, in a humidified 5% CO2 atmosphere at 37°C. All cell handling steps were carried out using the SelecT automated cell culture system. RAW264.7 cells were seeded into 96-well plates at a density of 20 × 10^3 cells per well and grown to approximately 50% of confluence (24 h). They were cultured for another 24 h with each of the test compounds described above (5 μL of stock serial dilutions in 20% DMSO were dispensed into 190 μL of fresh medium using Perkin Elmer Evolution P3, Waltham, MA,). Afterwards, these cells were stimulated with LPS (5 μL of 6 μg/mL were dispensed using a Thermo Scientific Multidrop Combi dispenser, MTX Lab Systems, Vienna, VA). Untreated (5 μL of 20% DMSO, compound vehicle) and unstimulated (5 μL of purified water, LPS vehicle) cells were used as negative controls (n = 4) while untreated but stimulated cells were used as positive controls (n = 4) in each assay plate.
# Test compound activities were calculated automatically using the Genedata Screener software (Genedata AG, Basel, Switzerland), and the percentage inhibition of each commercial compound was determined by Equation (1), integrated in the Genedata Screener software. Percentage of control of production of nitric oxide was: (1) Percentage of control = (Abswell − Absneg/Abspos − Absneg) ∗ 100 where Abswell is the absorbance measured per specific well; and Abspos and Absneg are the average absorbance measured for the positive (LPS/solvent vehicle) and negative controls (-LPS/solvent vehicle, respectively). […] Dexamethasone was used as positive control standard. All compounds were tested in triplicate (n = 3) in two different days.
# CYP3A4 = CYP3A4 (Homo sapiens, UniProt P08684); assay: in vitro; conditions: recombinant enzyme, pH 7.4
# CYP3A4, sequence (P08684 whole entry): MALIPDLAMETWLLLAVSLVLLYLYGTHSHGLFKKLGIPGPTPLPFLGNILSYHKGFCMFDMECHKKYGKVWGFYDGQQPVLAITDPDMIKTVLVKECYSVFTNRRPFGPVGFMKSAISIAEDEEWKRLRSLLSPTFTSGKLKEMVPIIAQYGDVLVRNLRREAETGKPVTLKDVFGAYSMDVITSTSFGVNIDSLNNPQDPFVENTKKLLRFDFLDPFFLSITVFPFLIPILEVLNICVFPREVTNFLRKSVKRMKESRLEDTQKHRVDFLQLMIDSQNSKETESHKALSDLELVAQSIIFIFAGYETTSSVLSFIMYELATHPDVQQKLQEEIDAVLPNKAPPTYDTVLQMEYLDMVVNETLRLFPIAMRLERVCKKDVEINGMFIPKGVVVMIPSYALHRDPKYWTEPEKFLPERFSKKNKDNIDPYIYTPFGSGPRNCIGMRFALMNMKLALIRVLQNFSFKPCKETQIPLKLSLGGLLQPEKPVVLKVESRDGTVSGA
# Experimental: Control samples were prepared in the absence of test compounds by the addition of solvent alone.
# Briefly, the observed inactivation rate constant at each macrolide concentration was calculated from the initial slopes of the remaining enzyme activity, plotted semi-logarithmically against the pre-incubation time. Non-linear regression analysis of the negative slopes against inhibitor concentration enables Kinact and KI to be calculated. […] All compounds were tested in triplicate in two different days for every methodology studied. […].
# [4] = biological target: human recombinant c-DNA expressed CYP3A4 (Homo sapiens, UniProt P08684); assay: CYP3A4 reversible inhibition (NIVA-CYPI-KS, BFC substrate)
# human recombinant c-DNA expressed CYP3A4, sequence (P08684 whole entry): as above
# Experimental: as §1, §2
# [5] = RXT metabolite profile in HLM incubations (LC-HRMS); format: in vitro ADME, human; conditions: RXT incubation with HLM; peak area of [M+H]+ ion
# Experimental: Test compounds (ERY, RXT, CLT, and AZT) were incubated in HLM at an initial substrate concentration of 1 μM in a 96-well format. Standard high-throughput incubation conditions were used with time points of 0, 15, 30, 45, 60, and 90 min. Protein concentration was 1 mg/mL and NADPH was present at 4 mM. Reaction was quenched using an equal volume of AcN and then diluted 1:1 with water prior to analysis by liquid chromatography coupled to high resolution mass spectrometry (LC-HRMS): Chromatography. The incubations were analyzed using an Agilent Series 1290 LC system (Agilent Technologies, Santa Clara, CA, USA). All analyses were performed using a Supelco Discovery HS C18 (2.1 × 50 mm) 3 μm column that was held at 30°C. Solvent A contained water with 0.1% formic acid and solvent B contained AcN with 0.1% formic acid, and the flow rate was set at 400 μL/min. The gradient elution was performed as follows: 0–0.5 min 0% eluent B; 0.5–7 min 100% eluent B; 7–9 min 100% eluent B; 9–9.2 min 0% eluent B; and 9.2–10.5 min 0% eluent B. High resolution mass spectrometry: AB SCIEX TripleTOF 5600 quadrupole-time-of-flight mass spectrometer (Q-TOF-MS) in positive ESI mode (AB SCIEX, Concord, ON, Canada) was used with a generic method for data acquisition on all compounds and samples. The method consisted of a time of flight mass survey scan (TOF MS), followed by two information-dependent acquisitions (IDA) TOF MS/MS scans. The mass range was m/z 100–1,000 for both MS and MS/MS. An accumulation time of 100 ms was used for each scan. Mass defect triggered IDA was used for the MS/MS scans (collision energy of 35 eV with a spread of ±10 eV). External mass calibration was performed automatically using a calibrant delivery system. Data processing was performed using MultiQuant Software and MetabolitePilot Software (AB SCIEX, Concord, ON, Canada) to process the TOF MS data and generate all quantitative information. An extracted ion current (XIC) window of ±10 mDa was used for all compounds. […]
# [6] = tested on: primary cultures of alveolar rat macrophages; set-up: method as in Tamaoki et al., 1999; Kohri et al., 2000; conditions: ref Tamaoki et al., 1999, Kohri et al., 2000; cited from earlier work
# [7] = read-out: Solubility Range Lower bound
# [8] = read-out: Solubility Range Upper bound
# [9] = LPS stimulated RAW 264.7, 24 h, concentrations with viability <80% rejected, read-out: NO production IC50
# [10] = inferred from relative composition of the RXT metabolite mixture, read-out: inferred IC50 for inactivation of NO production
SMILES,"solubility at 2 h [1, 7] [µM]","solubility at 2 h [1, 8] [µM]",half-life at 1 μM [2] [min],"IC50 [3, 9] [µM]",Area (%) relative content of parent and metabolites [5] [%],also measured
CC[C@H]1OC(=O)[C@H](C)[C@@H](O[C@H]2C[C@@](C)(OC)[C@@H](O)[C@H](C)O2)[C@H](C)[C@@H](O[C@@H]2O[C@H](C)C[C@H](N(C)C)[C@H]2O)[C@](C)(O)C[C@@H](C)CN(C)[C@H](C)[C@@H](O)[C@]1(C)O [Azithromycin],> 86,> 86,> 60,> 250,,"NO production, percentage of control ([3]; 250 μM (highest noncytotoxic dose), LPS stimulated RAW 264.7): 53.82 % of control"
"CC[C@H]1OC(=O)[C@H](C)[C@@H](O[C@H]2C[C@@](C)(OC)[C@@H](O)[C@H](C)O2)[C@H](C)[C@@H](O[C@@H]2O[C@H](C)C[C@H](N(C)C)[C@H]2O)[C@](C)(OC)C[C@@H](C)C(=O)[C@H](C)[C@@H](O)[C@]1(C)O [Claritromycin, clarithromycin]",> 86,> 86,50.6,> 62.5,,"CYP3A4 TDI KI (CYP3A4): 2.68 µM; NO production, percentage of control ([3]; 62.5 μM (highest noncytotoxic dose), LPS stimulated RAW 264.7): 85.2%"
"Clc1ccccc1C(c1ccccc1)(c1ccccc1)n1ccnc1 [Clotrimazole, clotrimazole]",2.59,10.3,,,,
C[C@@H]1C[C@H]2[C@@H]3CCC4=CC(=O)C=C[C@]4(C)[C@@]3(F)[C@@H](O)C[C@]2(C)[C@@]1(O)C(=O)CO [Dexamethasone],,,,0.00721,,
"CC[C@H]1OC(=O)[C@H](C)[C@@H](O[C@H]2C[C@@](C)(OC)[C@@H](O)[C@H](C)O2)[C@H](C)[C@@H](O[C@@H]2O[C@H](C)C[C@H](N(C)C)[C@H]2O)[C@](C)(O)C[C@@H](C)C(=O)[C@H](C)[C@@H](O)[C@]1(C)O [Erythromycin, erythromycin]",> 86,> 86,21.7,> 250,,IC50 [4]: 3.21 µM
"CC(=O)N1CCN(c2ccc(OCC3COC(Cn4ccnc4)(c4ccc(Cl)cc4Cl)O3)cc2)CC1 (stereo not drawn) [Ketoconazole, ketoconazole]",,,,> 10,,
"CCC1OC(=O)C(C)C(OC2CC(C)(OC)C(O)C(C)O2)C(C)C(OC2OC(C)CC(N(C)C)C2O)C(C)(O)CC(C)C(=NO)C(C)C(O)C1(C)O (stereo not drawn) [M1, ERY oxime]",,,,,20,"IC50 [3, 10]: 23.1 µg/mL"
"CCC1OC(=O)C(C)C(OC2CC(C)(OC)C(O)C(C)O2)C(C)C(OC2OC(C)CC(NC)C2O)C(C)(O)CC(C)C(=NO)C(C)C(O)C1(C)O (stereo not drawn) [M5, Demethylated ERY oxime]",,,,,2,"IC50 [3, 10]: 4.74 µg/mL"
"Clc1ccc(COC(Cn2ccnc2)c2ccc(Cl)cc2Cl)c(Cl)c1 (stereo not drawn) [Miconazole, miconazole]",8.62,34.5,,,,
"CC[C@H]1OC(=O)[C@H](C)[C@@H](O[C@H]2C[C@@](C)(OC)[C@@H](O)[C@H](C)O2)[C@H](C)[C@@H](O[C@@H]2O[C@H](C)C[C@H](N(C)C)[C@H]2O)[C@](C)(O)C[C@@H](C)/C(=N\OCOCCOC)[C@H](C)[C@@H](O)[C@]1(C)O [Roxythromycin, (E)-ERY-9-[O-[(2-methoxyethoxy)methyl]oxime]]",> 86,> 86,38.1,> 250,65,"IC50 in NO production [6]: 5 µg/mL; CYP3A4 TDI KI (CYP3A4): 0.29 µM; kinact (CYP3A4): 0.000715 s⁻¹; inactivation of NO production ([3]; from 0.488 to 250 μM, LPS stimulated RAW 264.7): no inactivation at all; IC50 [4]: 6.41 µM"
